In patent US8404696B2, “Quinazoline-2,4-dione derivative, and medical compositions for the prophylaxis and treatment of cranial nerve disease containing the same” (Shin Poong Pharmaceutical Co., Ltd., priority 2008, dated 2013):

Experiments:
[1] = tested on: middle cerebral artery occlusion (MCAO) model; test: Anti-stroke effect in middle cerebral artery occlusion (MCAO) model, oral administration before inducing stroke; format: in vivo, rats of SD species; settings: 100 mg/kg po; for Infarcted volume (Mean ± standard deviation): negative control 0.45 ± 0.03
[2] = tested on: middle cerebral artery occlusion (MCAO) model; test: Anti-stroke effect in MCAO model, intravenous administration around reperfusion; format: in vivo, rats of SD species; settings: 5 mg/kg iv; for Infarcted volume (Mean ± standard deviation): negative control 0.43 ± 0.02
Protocol: Male rats of SD species with 290-300 g of body weight were used as laboratory animals, and 8 rats were used in each experiment group. The operation was performed by using the method of Nagasawa et al. (Nagasawa, H. and Gogure, K. 1989, Stroke, 20: 1037-1043).
The rats were anesthetized by Ketamine, and the operation was performed as body temperature was maintained using thermoplate. The cerebral region was incised following the median line of the neck, and the left common carotid artery, internal carotid artery and external carotid artery were separated, taking care not to damage the vagus nerve. The common carotid artery and external carotid artery were ligatured, and a probe was inserted into the internal carotid artery from the branch point of the internal and external carotid arteries. And then the fundus of the middle cerebral artery was occluded by ligature just on the upper side of the insertion region. A probe was made by heating the end of a 4-0 nylon surgical suture (Dafilon, B. Braun, Germany) and cut into 30 mm. The 7-9 mm end of the probe was coated with the mixture of silcon (Xantopren VL plus, Heraeus Kulzer, Germany) and curing agent (Optosyl-Xantopren VL plus, Heraeus Kulzer, Germany), and the thickness was to be 0.3-0.4 mm. After the intervention of the probe insertion and the animals came out of the anesthetic, individuals in which neurological deficit symptom (right direction circling) was observed were included in the ischemia group.
After 3 hours of ischemia, the inserted probe was removed to reperfuse blood circulation. The brain was extracted after 24 hours, followed by histological staining.
The compound 3 was administered at a programmed time before or after insertion of the probe with oral or intravenous administration. TTC (2,3,5-triphenyltetrazolium chloride) staining was performed to estimate the damage of brain tissue by ischemia. Procephalon of the extracted brain was sliced into 2 mm of sequential slice by using brain matrix (ASI instrument, Warren, Mich., USA). The slices were put into 2% of TTC solution and incubated at 37° C. for 60 minutes for staining. The TTC stained brain slice was fixed in 10% of formalin buffer and the front of the each slice was photographed with a digital camera. The infarcted areas (cm^2) that were not stained with deep red in each acquired image were measured using an image analyzer, and total infarcted volume (cm^3) was calculated by multiplying the thickness of the slices
In the experiment, the probe was removed after stoke induction so that circulation was reperfused.

SH-SY5Y cells = test: Inhibitory effect on ZnSO4-mediated cytotoxicity (MTT assay); format: cell-based, humans; settings: compound 50 μg/ml; 600 μM zinc sulfate, 24 hours
Protocol: SH-SY5Y cells were cultured with 3×10^4 cell concentration in 96 well plates, and the compound (50 μg/ml) was treated. After 30 minutes, 600 μM of zinc sulfate was treated to induce toxicity for 24 hours and survival rate of cells was measured by MTT assay.

[3] = tested on: pentylentetrazole (PTZ)-induced convulsion; test: Anti-convulsant effect, pentylentetrazole (PTZ) test; format: in vivo; settings: 10 mg/kg intraperitoneally, PTZ 80 mg/kg subcutaneously
Summary of the method: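 Compound was given intraperitoneally at 10 mg/kg before PTZ challenge. The read-outs were time to convulsion onset, time until convulsions fully disappeared, and mortality.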

thoracic aorta of rats = test: Relaxing effect on thoracic aorta contracted by phenylephrine (organ bath); design: species or system rats of SD species; settings: for Relaxation percentage (Mean ± standard deviation): n = 3
Summary of the method: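 Thoracic aortic rings (2 mm) from ether-anesthetized male SD rats (250-300 g) were mounted in Krebs buffer gassed with 95% O2/5% CO2 and equilibrated at 1.0 g basal tension for 90 min. After stable contraction with phenylephrine (0.5 μM), compounds were added and relaxation recorded.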

[4] = treatment time 0 (right before inducing ischemic stroke)
[5] = treatment time 1 (an hour before inducing ischemic stroke)
[6] = treatment time 0.5 after reperfusion
[7] = treatment time 1 after reperfusion
[8] = treatment time 2 after reperfusion
[9] = treatment time 4 after reperfusion
[10] = treatment time 6 after reperfusion
[11] = treatment time 12 (hours) after reperfusion
[12] = treatment time 18 after reperfusion
[13] = treatment time 24 after reperfusion
[14] = treatment time −0.5 after reperfusion

Q: CC(=O)N(CCCCNCCCn1c(=O)[nH]c2ccccc2c1=O)CCCn1c(=O)[nH]c2ccccc2c1=O [Compound 3, N-[3-(2,4-dioxo-1,4-dihydro-2H-quinazolin-3-yl)propyl]-N-{4-[3-(2,4-dioxo-1,4-dihydro-2H-quinazolin-3-yl)propylamino]butyl}acetamide] was tested. Which “Inhibitory percentage compared to negative control” value [1, 4] did it give?
A: 69.8%

Q: And the “Infarcted volume (Mean ± standard deviation)” value [1, 4]?
A: 0.14 ± 0.02 cm^3

Q: What about the “Inhibitory percentage compared to negative control” value [1, 5] of the same compound?
A: 22.3%

Q: And the “Infarcted volume (Mean ± standard deviation)” value [1, 5]?
A: 0.35 ± 0.07 cm^3

Q: And the “Inhibitory percentage compared to negative control” value [2, 6]?
A: 72.3%

Q: And the “Infarcted volume (Mean ± standard deviation)” value [2, 6]?
A: 0.12 ± 0.03 cm^3

Q: And the “Inhibitory percentage compared to negative control” value [2, 7]?
A: 53.8%

Q: And the “Infarcted volume (Mean ± standard deviation)” value [2, 7]?
A: 0.20 ± 0.04 cm^3

Q: What about the “Inhibitory percentage compared to negative control” value [2, 8] of the same compound?
A: 49.9%

Q: And the “Infarcted volume (Mean ± standard deviation)” value [2, 8]?
A: 0.22 ± 0.02 cm^3

Q: And the “Inhibitory percentage compared to negative control” value [2, 9]?
A: 47.9%

Q: And the “Infarcted volume (Mean ± standard deviation)” value [2, 9]?
A: 0.22 ± 0.09 cm^3

Q: And the “Inhibitory percentage compared to negative control” value [2, 10]?
A: 60.9%

Q: And the “Infarcted volume (Mean ± standard deviation)” value [2, 10]?
A: 0.17 ± 0.04 cm^3

Q: And the “Inhibitory percentage compared to negative control” value [2, 11]?
A: 62.7%

Q: And the “Infarcted volume (Mean ± standard deviation)” value [2, 11]?
A: 0.16 ± 0.04 cm^3

Q: And the “Inhibitory percentage compared to negative control” value [2, 12]?
A: 13.5%

Q: What about the “Infarcted volume (Mean ± standard deviation)” value [2, 12] of the same compound?
A: 0.37 ± 0.03 cm^3

Q: What about the “Inhibitory percentage compared to negative control” value [2, 13] of the same compound?
A: 16.3%

Q: And the “Infarcted volume (Mean ± standard deviation)” value [2, 13]?
A: 0.36 ± 0.08 cm^3

Q: What about the “Inhibitory percentage compared to negative control” value [2, 14] of the same compound?
A: 67.2%

Q: And the “Infarcted volume (Mean ± standard deviation)” value [2, 14]?
A: 0.14 ± 0.03 cm^3

Q: And the “inhibitory percentage, zinc-induced toxicity” value (SH-SY5Y cells)?
A: 17.6 ± 3.5%

Q: What about the mortality rate ([3]; (animals/total), negative control 70(17/23)) of the same compound?
A: 17(2/12) %

Q: And the “Induction percentage of convulsion” value ([3]; (animals/total), negative control 100(23/23))?
A: 50(6/12) %

Q: What about the “Initiation time of convulsion” value ([3]; negative control 5.0 ± 0.7) of the same compound?
A: 34.7 ± 7.7 min

Q: What about the Duration of convulsion ([3]; negative control 46.7 ± 3.3) of the same compound?
A: 11.8 ± 5.6 min

Q: And the “Relaxation percentage (Mean ± standard deviation)” value (thoracic aorta of rats; 50 μg/mL, phenylephrine 0.5 μM)?
A: 16.2 ± 4.4%

Q: What about the “Relaxation percentage (Mean ± standard deviation)” value (thoracic aorta of rats; 100 μg/mL, phenylephrine 0.5 μM) of the same compound?
A: 44.2 ± 8.5%

Q: And the “Relaxation percentage (Mean ± standard deviation)” value (thoracic aorta of rats; 200 μg/mL, phenylephrine 0.5 μM)?
A: 65.6 ± 7.1%

Q: What about the “Relaxation of thoracic aorta contracted by phenylephrine, dose dependence” value (thoracic aorta of rats; 50, 100 and 200 μg/mL) of the same compound?
A: dose-dependently relaxed the thoracic aorta of rats contracted by phenylephrine

Q: And the inhibition at 67 µg/mL (thoracic aorta of rats; Rattus norvegicus, 67 μg/mL, phenylephrine 0.5 μM, mean n = 3, read-out: Relaxation percentage)?
A: 27.4%
